Assay results: article PMC11650849, “Brain endothelial permeability, transport, and flow assessed over 10 orders of magnitude using the in situ brain perfusion technique” (Fluids and Barriers of the CNS, 2024)
Read-outs that look alike come from different tables or passages of the source.

What was measured:
[1] = Octanol/water partition and distribution coefficients; conditions: for Log Doct 7.4: octanol distribution coefficient, pH 7.4; for Log Poct: octanol partition coefficient
Lat-1 = Lat-1 (Rattus norvegicus, UniProt Q63016)
[2] = rat in vivo measurements; cited from earlier work
[3] = Neutral fraction at pH 7.4 calculated from pKa; type: physicochemical; conditions: neutral fraction at perfusion fluid pH 7.40, calculated from pKa
[4] = In situ rat brain perfusion (brain uptake Kin, extraction E, BBB PS)
[5] = for Brain Kin: calculated at brain blood flow […] and rat serum fu; for Extraction (unbound) / Brain vascular extraction (total): calculated at brain blood flow […]; for Extraction (unbound): free drug; for Brain vascular extraction (total): with rat serum fu
[6] = ref Hansch et al. [123], Avdeef [46] or other sources, cited from earlier work; for Log Poct: octanol partition coefficient
[7] = rat in vivo measurements; cited from earlier work; remark: listed apart in the source
[8] = rat
[9] = rat, in vivo, pH 7.4
[10] = LAT1 substrates, tracer concentration
[11] = LAT1 substrates, tracer concentration, perfusion 15-30 s

Sequence of Lat-1 (Q63016 whole entry): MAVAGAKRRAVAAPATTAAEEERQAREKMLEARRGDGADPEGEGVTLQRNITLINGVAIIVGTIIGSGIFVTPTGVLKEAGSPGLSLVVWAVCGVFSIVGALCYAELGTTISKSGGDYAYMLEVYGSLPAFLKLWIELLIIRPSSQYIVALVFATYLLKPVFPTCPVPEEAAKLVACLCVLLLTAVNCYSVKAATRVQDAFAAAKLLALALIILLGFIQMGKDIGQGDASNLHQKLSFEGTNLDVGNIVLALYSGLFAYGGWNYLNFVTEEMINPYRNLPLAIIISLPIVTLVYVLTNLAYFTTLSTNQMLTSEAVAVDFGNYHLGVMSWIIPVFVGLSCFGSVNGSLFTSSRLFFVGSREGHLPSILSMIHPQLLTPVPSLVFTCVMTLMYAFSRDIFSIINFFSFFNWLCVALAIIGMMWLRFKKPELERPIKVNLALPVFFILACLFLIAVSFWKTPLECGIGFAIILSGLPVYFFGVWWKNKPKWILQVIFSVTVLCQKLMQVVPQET
Sequence of Lat-1 (Q794F9 whole entry partner): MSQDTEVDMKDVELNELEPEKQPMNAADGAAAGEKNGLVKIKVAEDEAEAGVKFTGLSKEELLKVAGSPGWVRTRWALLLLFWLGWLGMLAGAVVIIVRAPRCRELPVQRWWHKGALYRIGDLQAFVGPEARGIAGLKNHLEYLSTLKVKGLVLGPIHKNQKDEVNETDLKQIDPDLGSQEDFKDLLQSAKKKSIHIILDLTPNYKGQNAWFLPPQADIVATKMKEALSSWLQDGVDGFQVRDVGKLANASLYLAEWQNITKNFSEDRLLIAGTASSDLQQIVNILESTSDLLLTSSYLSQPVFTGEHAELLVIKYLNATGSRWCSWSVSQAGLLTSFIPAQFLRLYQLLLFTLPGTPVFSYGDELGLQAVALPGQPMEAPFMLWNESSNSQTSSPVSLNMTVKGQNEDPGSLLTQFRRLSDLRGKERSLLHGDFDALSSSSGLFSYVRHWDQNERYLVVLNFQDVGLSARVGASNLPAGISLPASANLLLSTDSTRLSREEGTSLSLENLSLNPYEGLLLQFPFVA

Compound: N[C@H](C(=O)O)[C@@H]1CC(Cl)=NO1 [Acivicin]
- Log Doct 7.4 [1]: −2.63
- Log Poct [1]: −0.31
- LogPS (Lat-1; [10]): −3.32
- PS (Lat-1; [11]): 0.000479 mL/s/g

Compound: Nc1ncnc2nc[nH]c12 [Adenine]
- Log Doct 7.4 [1]: −2.12

Compound: Nc1ncnc2c1ncn2[C@@H]1O[C@H](CO)[C@@H](O)[C@H]1O [Adenosine]
- Log Doct 7.4 [1]: −1.02

Compound: O=C(CO)[C@@H](O)[C@H](O)[C@H](O)CO [Fructose]
- Brain Vu,br [2]: 0.08 mL/g
- fn (%) [3]: 100%
- Log Pc ([4]; Pc in cm/s): −7.24
- Log Po ([4]; Po in cm/s): −7.24
- Log PoS ([4]; PoS in mL/s/g): −5.24
- Pc ([4]; S assumed 100 cm^2/g): 5.74e-08 cm/s
- Po ([4]; S assumed 100 cm^2/g): 5.74e-08 cm/s
- PoS ([4]; brain vascular intrinsic PoS): 5.74e-06 mL/s/g
- PcS ([4]; cerebral cortex, flow 0.1–[…], S = physiological saline, AB = artificial blood): 5.74e-06 mL/s/g
- PoS ([4]; intrinsic PS of neutral solute, PoS = PcS/fn, flow 0.1–[…]): 5.74e-06 mL/s/g
- Brain Kin [5]: 5.74e-06 mL/s/g
- Extraction (unbound) [5]: 2.39E-04%
- Brain vascular extraction (total) [5]: 2.39E-04%
- Log Poct [6]: −3.20
- Log Doct pH=7.4 [6]: −3.20
- fu,.p [7]: 1.00
- half-life [8]: 168 min

Compound: NCC1(CC(=O)O)CCCCC1 [Gabapentin]
- Log Doct 7.4 [1]: −1.4
- Log Poct [1]: 1.19
- LogPS (Lat-1; rat, in vivo, pH 7.4): −2.33
- PS (Lat-1; rat, in vivo, pH 7.4): 0.00473 mL/s/g

Compound: Nc1ccn([C@@H]2O[C@H](CO)[C@@H](O)C2(F)F)c(=O)n1 [Gemcitabine]
- Log Doct 7.4 [1]: −1.36
- Log Poct [1]: −0.470

Compound: Cc1c(I)c(=O)n(-c2ccccc2)n1C [Iodoantipyrine]
- Brain Vu,br [2]: 2 mL/g
- fn (%) [3]: 100%
- Brain Kin [5]: 0.0231 mL/s/g
- Extraction (unbound) [5]: 99.8%
- Brain vascular extraction (total) [5]: 96.1%
- Peak flow rate for 90% E ([5]; protein-free physiologic saline pH 7.4): 4.1 mL/min/g
- Maximal flow—90% extraction, PcS/2.3 ([5]; protein-free saline, pH 7.4): 0.068 mL/s/g
- Log Poct [6]: 1.27
- Log Doct pH=7.4 [6]: 1.27
- BBB PcS [9]: 0.156 mL/s/g
- Log Pc [9]: −2.81
- Log PoS [9]: −0.81
- Pc [9]: 0.00156 cm/s
- PcS [9]: 0.16 mL/s/g
- Percentage printed beside the uptake curves (measure not given) [9]: 79%
- PoS [9]: 0.16 mL/s/g
- Log Po [9]: −2.81
- Po [9]: 0.00156 cm/s
- fu,.p [7]: 0.50
- half-life ([8]; brain): 0.5 min

Compound: CNC[C@H](N)C(=O)O [L-BMAA]
- Log Doct 7.4 [1]: −3.4
- Log Poct [1]: −0.85
- LogPS (Lat-1; [10]): −3.27
- PS (Lat-1; [11]): 0.000542 mL/s/g

Compound: OC[C@@H](O)[C@@H](O)[C@H](O)[C@H](O)CO [Mannitol]
- Brain Vu,br [2]: 0.08 mL/g
- fn (%) [3]: 100%
- Brain Kin [5]: 8.8e-06 mL/s/g
- Extraction (unbound) [5]: 3.67E-04%
- Brain vascular extraction (total) [5]: 3.67E-04%
- Log Poct [6]: −3.10
- Log Doct pH=7.4 [6]: −3.10
- Log Pc [9]: −7.06
- Log PoS [9]: −5.06
- Pc [9]: 8.8e-08 cm/s
- PcS [9]: 8.8e-06 mL/s/g
- PoS [9]: 8.8e-06 mL/s/g
- Log Po [9]: −7.06
- Po [9]: 8.8e-08 cm/s
- fu,.p [7]: 1.00
- half-life ([8]; brain): 109 min

Compound: N[C@@H](Cc1ccc(N(CCCl)CCCl)cc1)C(=O)O [Melphalan (para)]
- Log Doct 7.4 [1]: −1.03
- Log Poct [1]: 1.79

Compound: Fc1ccc([C@@H]2CCNC[C@H]2COc2ccc3c(c2)OCO3)cc1 [Paroxetine]
- Brain Vu,br [2]: 852.0 mL/g
- fn (%) [3]: 0.32%
- Brain Kin [5]: 0.00164 mL/s/g
- Extraction (unbound) [5]: 99.4%
- Brain vascular extraction (total) [5]: 7.4%
- Log Poct [6]: 3.50
- Log Doct pH=7.4 [6]: 1.00
- BBB PcS [9]: 0.12 ± 0.02 mL/s/g
- Log Pc [9]: −2.91
- Log PoS [9]: 1.59
- Pc [9]: 0.00123 cm/s
- PcS [9]: 0.12 mL/s/g
- PoS [9]: 39.0 mL/s/g
- Log Po [9]: −0.41
- Po [9]: 0.39 cm/s
- fu,.p [7]: 0.015
- half-life ([8]; brain): 83 min

Compound: O=C1NC(=O)C(c2ccccc2)(c2ccccc2)N1 [Phenytoin]
- Brain Vu,br [2]: 12.7 mL/g
- fn (%) [3]: 88.4%
- Brain Kin [5]: 0.00364 mL/s/g
- Extraction (unbound) [5]: 66.6%
- Brain vascular extraction (total) [5]: 15.2%
- Log Poct [6]: 2.24
- Log Doct pH=7.4 [6]: 2.17
- Log Pc [9]: −3.58
- Log PoS [9]: −1.53
- Pc [9]: 0.000263 cm/s
- PcS [9]: 0.026 mL/s/g
- PoS [9]: 0.0298 mL/s/g
- Log Po [9]: −3.53
- Po [9]: 0.000298 cm/s
- fu,.p [7]: 0.15
- half-life ([8]; brain): 6.02 min

Compound: OC[C@H]1O[C@H](OC[C@H]2O[C@H](O[C@]3(CO)O[C@H](CO)[C@@H](O)[C@@H]3O)[C@H](O)[C@@H](O)[C@@H]2O)[C@H](O)[C@@H](O)[C@H]1O [Raffinose]
- Brain Vu,br [2]: 0.03 mL/g
- fn (%) [3]: 100%
- Brain Kin [5]: 9.5e-07 mL/s/g
- Extraction (unbound) [5]: 3.96E-05%
- Brain vascular extraction (total) [5]: 3.96E-05%
- Log Poct [6]: −3.89
- Log Doct pH=7.4 [6]: −3.89
- Log Pc [9]: −8.02
- Log PoS [9]: −6.02
- Pc [9]: 9.5e-09 cm/s
- PcS [9]: 9.5e-07 mL/s/g
- PoS [9]: 9.5e-07 mL/s/g
- Log Po [9]: −8.02
- Po [9]: 9.5e-09 cm/s
- fu,.p [7]: 1.00
- half-life ([8]; brain): 405 min

Compound: COC(=O)[C@H]1[C@H]2C[C@@H]3c4[nH]c5cc(OC)ccc5c4CCN3C[C@H]2C[C@@H](OC(=O)c2cc(OC)c(OC)c(OC)c2)[C@@H]1OC [Reserpine]
- Brain Vu,br [2]: 5 mL/g
- fn (%) [3]: 83.37%
- Brain Kin [5]: 0.00749 mL/s/g
- Extraction (unbound) [5]: 97.6%
- Brain vascular extraction (total) [5]: 31.2%
- Log Poct [6]: 1.54
- Log Doct pH=7.4 [6]: 1.46
- Log Pc [9]: −3.05
- Log PoS [9]: −0.97
- Pc [9]: 0.000898 cm/s
- PcS [9]: 0.09 mL/s/g
- PoS [9]: 0.11 mL/s/g
- Log Po [9]: −2.97
- Po [9]: 0.00108 cm/s
- fu,.p [7]: 0.10
- half-life ([8]; brain): 0.77 min

Compound: Cn1nnc2c(C(N)=O)ncn2c1=O [Temozolamide]
- Brain Vu,br [2]: 1.05 mL/g
- fn (%) [3]: 100%
- Brain Kin [5]: 0.00464 mL/s/g
- Extraction (unbound) [5]: 4.3%
- Brain vascular extraction (total) [5]: 5.3%
- Log Poct [6]: −1.04
- Log Doct pH=7.4 [6]: −1.04
- Log Pc [9]: −4.79
- Log PoS [9]: −2.79
- Pc [9]: 1.63e-05 cm/s
- PcS [9]: 0.0016 mL/s/g
- PoS [9]: 0.00163 mL/s/g
- Log Po [9]: −4.79
- Po [9]: 1.63e-05 cm/s
- fu,.p [7]: 0.80
- half-life ([8]; brain): 7.65 min

Compound: CCCC(CCC)C(=O)O [Valproic acid]
- Brain Vu,br [2]: 1.43 mL/g
- fn (%) [3]: 0.16%
- Brain Kin [5]: 0.0016 mL/s/g
- Extraction (unbound) [5]: 31.8%
- Brain vascular extraction (total) [5]: 6.7%
- Log Poct [6]: 2.71
- Log Doct pH=7.4 [6]: 0.21
- Log Pc [9]: −4.04
- Log PoS [9]: 0.46
- Pc [9]: 9.19e-05 cm/s
- PcS [9]: 0.0092 mL/s/g
- PoS [9]: 2.92 mL/s/g
- Log Po [9]: −1.54
- Po [9]: 0.0292 cm/s
- fu,.p [7]: 0.18
- half-life ([8]; brain): 1.86 min
